Series [1] relates to human lung adenocarcinoma cell A-549. Description: Growth inhibition of A-549 cells, SRB protein staining assay. To be noted: read-out: Growth inhibition effect to A-549 cell strain; for inhibition at 100 µM: A549, 10^−4 M; for inhibition at 10 µM: A549, 10^−5 M; for inhibition at 1 µM: A549, 10^−6 M; for inhibition at 0.1 µM: A549, 10^−7 M; for inhibition at 0.01 µM: A549, 10^−8 M. In kind it is cell-based. The method, then: (§1) The cell growth inhibition of mice leukemia cell P388 was evaluated by MTT (microculture tetrozolium) assay, while the cell growth inhibition of human lung adenocarcinoma cell A-549 was evaluated by SRB (Sulforhodamine B) protein staining assay.
The procedure of SRB assay was as follows: appropriate amount of cells in log phase were seeded in 96-well plates according to the growing rate (90 ul/well). After cultured for 24 h, cells were exposed to serial dilutions of drugs in triplicate (10 ul/well). In addition, control wells of normal saline in corresponding concentrations and zeroing wells without cell were set. The cells were incubated in 5% CO2 humidified incubator at 37° C. After 72 h, the medium was removed and cells were fixed with cold 10% trichloric acid (TCA) at 4° C. for 1 h. The plates were washed with distilled water 5 times, and stained in room temperature with 4 mg/ml SRB (Sigma, diluted with 1% glacial acetic acid, 100 ul/well) for 15 minutes after air drying. SRB was then washed with 1% acetic acid 5 times. Plates were dried, followed by adding 150 ul/well Tris solution. Absorbance was measured at […] using a multiwell spectrophotometer. The inhibition effect of the compounds in test (percentage of growth inhibition) was calculated for each well: % inhibition=(A540control cells−A540treated cells)/A540control cells×100%.
(§2) The cell lines used were mice leukemia cell P388, human leukemia cell MOLT-4, human lung adenocarcinoma cell A-549, human gastric adenocarcinoma SGC-7901, human hepatocellular carcinoma BEL-7402 and human embryonal fibroblast WI-38 (commerially available from ATCC).
(§3) The exposure time to compounds was 48 h-72 h.

In another series the test system is mice leukemia cell P388. In words: Growth inhibition of P388 cells, MTT assay. Particulars: Mus musculus, read-out: Growth inhibition effect to P388 cell strain; for inhibition at 100 µM: 10^−4 M; for inhibition at 10 µM: 10^−5 M; for inhibition at 1 µM: 10^−6 M; for inhibition at 0.1 µM: 10^−7 M; for inhibition at 0.01 µM: 10^−8 M. In kind it is cell-based. Here is the method: as §1
The procedure of MTT assay was as follows: appropriate amount of cells in log phase were seeded in 96-well plates (6000 cells/well, 15000 cells/well, 90ul/well) according to the growing rate. After cultured for 24 h, cells were exposed to serial dilutions of drugs in triplicate (10 ul/well). In addition, wells without cell, and wells without cell but with serial dilutions of drugs in case of using a colored-drug were set for zeroing. Then, the cells were cultured in 5% CO2 humidified incubator at 37° C. for 48 h. After treatment of drugs for 48 h, 20ul MTT (Sigma) which was diluted by normal saline to the concentration of 5 mg/ml was added to each well, 50ul/well 10%SDS-5% isobutanol-0.01% mol/LHCl was added after 4 h. After cultured overnight, absorbance was measured at 570 nm using a multiwell spectrophotometer. The inhibition effect of the compounds in test (percentage of growth inhibition) was calculated for each well: % inhibition=(OD570control cells−OD570treated cells)/OD570control cells×100%.
as §2, §3
In general terms: Tetrazolium assays rely on reduction of a dye to a coloured formazan, in cell work by metabolically active cells.

The inhibition is the change of the read-out against control, counted positive when it falls. A word on the melting point: it is the temperature of the solid-liquid transition. Turning to `O=c1c2ccc3sc4ccccc4c4ccc(c(=O)n1CCN1CCNCC1)c2c34` [compound 3, N-(2′-piperazinylethyl)benzo[k, l]thioxanthene-3,4-dicarboximide], the melting point is 286 to 287 °C. Besides, in series [1], the inhibition at 100 µM came out at 78.6%, the inhibition at 10 µM was found to be 92.4%, the inhibition at 1 µM stood at 69.8% and the inhibition at 0.1 µM was 4.7%. Further, the inhibition at 0.01 µM in series [1] was found to be 0%. For the same compound, in the series with mice leukemia cell P388, the inhibition at 100 µM is 100%, the inhibition at 10 µM is 100%, the inhibition at 1 µM amounted to 22.2% and the inhibition at 0.1 µM is 0%. The inhibition at 0.01 µM in the series with mice leukemia cell P388 was found to be 0%.
`CN(C)CCN1C(=O)c2cccc3c2c(cc2nc(-c4ccccc4)sc23)C1=O` [compound 5, N-(N′,N′-dimethylaminoethyl)-4H, 6H-9-phenyl-benzo[de]thiazol[5,4-g]isoquinoline-4,6-diketone] registered a melting point of 220 to 221 °C. Besides, in series [1], the inhibition at 100 µM was 94.8%, the inhibition at 10 µM amounted to 91.5%, the inhibition at 1 µM came to 73% and the inhibition at 0.1 µM was determined as 69.7%. Further, the inhibition at 0.01 µM in series [1] worked out at 17.8%. Moreover, in the series on mice leukemia cell P388, the inhibition at 100 µM amounted to 96.6%, the inhibition at 10 µM stood at 87.7%, the inhibition at 1 µM is 48.2% and the inhibition at 0.1 µM came to 21.1%. In addition, the inhibition at 0.01 µM in the series with mice leukemia cell P388 stood at 8.1%.
Consider `Cc1ccc(-c2nc3cc4c5c(cccc5c3s2)C(=O)N(CCN(C)C)C4=O)cc1` [compound 6, N-(N′,N′-dimethylaminoethyl)-4H, 6H-9-p-methylphenyl-benzo[d, e]thiazol[5,4-g]isoquinoline4,6-diketone], for which the melting point fell in the range of 202 to 203 °C. For the same compound, in series [1], the inhibition at 100 µM is 95.8%, the inhibition at 10 µM is 92.3%, the inhibition at 1 µM came to 52.7% and the inhibition at 0.1 µM was 31.5%. In series [1], the inhibition at 0.01 µM stood at 7.1%. In the series on mice leukemia cell P388, the inhibition at 100 µM came out at 96%, the inhibition at 10 µM is 74.7%, the inhibition at 1 µM amounted to 47.7% and the inhibition at 0.1 µM amounted to 29.3%. Moreover, the inhibition at 0.01 µM in the series with mice leukemia cell P388 turned out to be 13%.
`CN(C)CCN1C(=O)c2cccc3c2c(cc2nc(-c4ccccc4O)sc23)C1=O` [compound 8, N-(N′,N′-dimethylaminoethyl)-4H, 6H-9-o-hydroxyphenyl-benzo[de]thiazol[5,4-g]isoquinoline-4,6-diketone]: the melting point was in the range of 240 to 241 °C. Also, in series [1], the inhibition at 100 µM was 95.2%, the inhibition at 10 µM is 59.6%, the inhibition at 1 µM is 18.6% and the inhibition at 0.1 µM is 1%. Moreover, the inhibition at 0.01 µM in series [1] was 0.2%. In the series on mice leukemia cell P388, the inhibition at 100 µM is 94.8%, the inhibition at 10 µM worked out at 45.9%, the inhibition at 1 µM worked out at 24.9% and the inhibition at 0.1 µM worked out at 10%. Further, in the series on mice leukemia cell P388, the inhibition at 0.01 µM stood at 8.8%.
Compound `CN(C)CCN1C(=O)c2cccc3c2c(cc2nc(-c4ccccc4Cl)sc23)C1=O` [compound 10, N-(N′,N′-dimethylaminoethyl)-4H, 6H-9-o-chlorophenyl-benzo[de]thiazol[5,4-g]isoquinoline-4,6-diketone] returned a melting point of 235 to 237 °C. Besides, in series [1], the inhibition at 100 µM was found to be 91.4%, the inhibition at 10 µM was found to be 93.4%, the inhibition at 1 µM worked out at 94.5% and the inhibition at 0.1 µM came out at 35.7%. In series [1], the inhibition at 0.01 µM was found to be 12.5%. Moreover, in the series with mice leukemia cell P388, the inhibition at 100 µM was found to be 96.1%, the inhibition at 10 µM came to 89%, the inhibition at 1 µM turned out to be 64.6% and the inhibition at 0.1 µM stood at 40.5%. The inhibition at 0.01 µM with mice leukemia cell P388 was 7.3%.
In the case of `CCCCN1C(=O)c2cccc3c2c(cc2nnsc23)C1=O` [compound 12, 5-butyl-4H, 6H-benzo[de]-1,2,3,-thiadiazol[5,4-g]isoquinoline4,6-diketone], the melting point was in the range of 177 to 179 °C. Also, in series [1], the inhibition at 100 µM was found to be 69.4%, the inhibition at 10 µM worked out at 75.2%, the inhibition at 1 µM is 0% and the inhibition at 0.1 µM amounted to 2.3%. In addition, the inhibition at 0.01 µM in series [1] was determined as 0%. For the same compound, in the series on mice leukemia cell P388, the inhibition at 100 µM is 54.3%, the inhibition at 10 µM came out at 23.2%, the inhibition at 1 µM stood at 17.1% and the inhibition at 0.1 µM was found to be 12.3%. Further, in the series with mice leukemia cell P388, the inhibition at 0.01 µM was 15.6%.
`CN(C)CCCN1C(=O)c2cccc3c2c(cc2nnsc23)C1=O` [compound 13, 5-(N′,N′-dimethylaminopropyl)-4H, 6H-benzo[de]-1,2,3,-thiadiazol[5,4-g]isoquinoline-4,6-diketone] returned a melting point of 101 to 102 °C. In series [1], the inhibition at 100 µM is 95.9%, the inhibition at 10 µM came out at 94.4%, the inhibition at 1 µM worked out at 90.6% and the inhibition at 0.1 µM stood at 0%. Also, in series [1], the inhibition at 0.01 µM came to 0%. Besides, in the series on mice leukemia cell P388, the inhibition at 100 µM was determined as 99.5%, the inhibition at 10 µM amounted to 89.2%, the inhibition at 1 µM stood at 19.8% and the inhibition at 0.1 µM was determined as 11%. In the series on mice leukemia cell P388, the inhibition at 0.01 µM was 14.5%.
`O=C1c2cccc3c2c(cc2nnsc23)C(=O)N1CCN1CCNCC1` [compound 14, 5-(2′-piperazinylethyl)-4H, 6H-benzo[de]-1,2,3,-thiadiazol[5,4-g]isoquinoline-4,6-diketone] showed a melting point of 145 to 146 °C. In addition, in series [1], the inhibition at 100 µM came to 95.9%, the inhibition at 10 µM was found to be 96.1%, the inhibition at 1 µM turned out to be 87.3% and the inhibition at 0.1 µM came out at 60.2%. In addition, the inhibition at 0.01 µM in series [1] came to 4.4%. In the series on mice leukemia cell P388, the inhibition at 100 µM came to 98.8%, the inhibition at 10 µM was determined as 90.8%, the inhibition at 1 µM was 16.8% and the inhibition at 0.1 µM amounted to 13.7%. Besides, in the series with mice leukemia cell P388, the inhibition at 0.01 µM is 18.4%.
`CCCCN1C(=O)c2cccc3c2c(cc2c4ccccc4sc32)C1=O` [compound 15, N-butylbenzo[b] thieno[2,1-c]naphthalimide]: the melting point fell in the range of 170 to 172 °C. In series [1], the inhibition at 100 µM was found to be 94%, the inhibition at 10 µM worked out at 45.6%, the inhibition at 1 µM was 0% and the inhibition at 0.1 µM worked out at 0%. The inhibition at 0.01 µM in series [1] amounted to 0%. In the series on mice leukemia cell P388, the inhibition at 100 µM was determined as 51.8%, the inhibition at 10 µM was 26%, the inhibition at 1 µM turned out to be 3.2% and the inhibition at 0.1 µM stood at 3.2%. The inhibition at 0.01 µM with mice leukemia cell P388 worked out at 5.8%.
Consider `O=C1c2cccc3c2c(cc2c4ccccc4sc32)C(=O)N1CCN1CCNCC1` [compound 17, N-(2′-piperazinylethyl)benzo[b]thieno[2,1-c] naphthalimide], for which the melting point was in the range of 226 to 228 °C. For the same compound, in series [1], the inhibition at 100 µM was 91.1%, the inhibition at 10 µM came to 95.4%, the inhibition at 1 µM came out at 46.8% and the inhibition at 0.1 µM is 0%. For the same compound, the inhibition at 0.01 µM in series [1] worked out at 1.7%. Also, in the series with mice leukemia cell P388, the inhibition at 100 µM came to 100%, the inhibition at 10 µM came to 100%, the inhibition at 1 µM came to 23.9% and the inhibition at 0.1 µM amounted to 4.5%. Besides, the inhibition at 0.01 µM with mice leukemia cell P388 was 2%.

Source of the values: patent publication US7541463B2, “Sulfur-containing naphthalimide derivatives” (East China University of Science and Technology, priority 2003, dated 2009).
